Results: ChEMBL document CHEMBL1201861, “Genomics of Drug Sensitity in Cancer screening data, Wellcome Trust Sanger Institute”

Tests used:
Experiment in all cases: cells
COLO-741 = assay type: functional, cell-based, Homo sapiens; conditions: Homo sapiens, COLO-741
Description: SANGER: Inhibition of human COLO-741 cell growth in a cell viability assay.

COLO-824 = assay type: functional, cell-based, Homo sapiens; conditions: Homo sapiens, COLO-824
Description: SANGER: Inhibition of human COLO-824 cell growth in a cell viability assay.

Ca9-22 = assay type: functional, cell-based, Homo sapiens; conditions: Homo sapiens, Ca9-22;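 note: growth inhibition of Ca9-22 cells, read out with a cell viability assay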
Description: SANGER: Inhibition of human Ca9-22 cell growth in a cell viability assay.

Capan-2 = assay type: functional, cell-based, Homo sapiens; conditions: Homo sapiens, Capan-2;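 note: Capan-2 cell growth inhibition, read out with a viability assay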
Description: SANGER: Inhibition of human Capan-2 cell growth in a cell viability assay.

D-263MG = assay type: functional, cell-based, Homo sapiens; conditions: Homo sapiens, D-263MG
Description: SANGER: Inhibition of human D-263MG cell growth in a cell viability assay.

EGI-1 = assay type: functional, cell-based, Homo sapiens; conditions: Homo sapiens, EGI-1;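 note: cell viability readout used to gauge growth inhibition of EGI-1 cells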
Description: SANGER: Inhibition of human EGI-1 cell growth in a cell viability assay.

ES1 = assay type: functional, cell-based, Homo sapiens; conditions: Homo sapiens, ES1;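 note: growth inhibition of ES1 cells, read out with a cell viability assay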
Description: SANGER: Inhibition of human ES1 cell growth in a cell viability assay.

ES5 = assay type: functional, cell-based, Homo sapiens; conditions: Homo sapiens, ES5;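 note: growth inhibition of human ES5 cells, read out by a cell viability assay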
Description: SANGER: Inhibition of human ES5 cell growth in a cell viability assay.

EW-11 = assay type: functional, cell-based, Homo sapiens; conditions: Homo sapiens, EW-11;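 note: growth inhibition of human EW-11 cells, measured with a cell viability assay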
Description: SANGER: Inhibition of human EW-11 cell growth in a cell viability assay.

GI-1 = assay type: functional, cell-based, Homo sapiens; conditions: Homo sapiens, GI-1
Description: SANGER: Inhibition of human GI-1 cell growth in a cell viability assay.

GI-ME-N = assay type: functional, cell-based, Homo sapiens; conditions: Homo sapiens, GI-ME-N;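 note: growth inhibition of human GI-ME-N cells, read out with a cell viability assay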
Description: SANGER: Inhibition of human GI-ME-N cell growth in a cell viability assay.

GMS-10 = assay type: functional, cell-based, Homo sapiens; conditions: Homo sapiens, GMS-10;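 note: growth inhibition of GMS-10 cells, read out as cell viability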
Description: SANGER: Inhibition of human GMS-10 cell growth in a cell viability assay.

HAL-01 = assay type: functional, cell-based; conditions: Homo sapiens;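 note: growth inhibition of human HAL-01 cells, read out with a cell viability assay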
Description: SANGER: Inhibition of human HAL-01 cell growth in a cell viability assay.

HCC1937 = assay type: functional, cell-based, Homo sapiens; conditions: Homo sapiens, HCC1937;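 note: growth inhibition measured with a cell viability read-out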
Description: SANGER: Inhibition of human HCC1937 cell growth in a cell viability assay.

HMV-2 cell line = assay type: functional, cell-based, Homo sapiens; conditions: Homo sapiens, HMV-2;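 note: growth inhibition of HMV-II cells, read out with a cell viability assay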
Description: SANGER: Inhibition of human HMV-II cell growth in a cell viability assay.

HOP-92 = assay type: functional, cell-based, Homo sapiens; conditions: Homo sapiens, HOP-92;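 note: cell viability readout, with IC50 reflecting inhibition of HOP-92 cell growth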
Description: SANGER: Inhibition of human HOP-92 cell growth in a cell viability assay.

HT = assay type: functional, cell-based; conditions: Homo sapiens
Description: SANGER: Inhibition of human HT cell growth in a cell viability assay.

HT-3 = assay type: functional, cell-based, Homo sapiens; conditions: Homo sapiens, HT-3;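 note: growth inhibition measured with a cell viability readout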
Description: SANGER: Inhibition of human HT-3 cell growth in a cell viability assay.

HuTu80 = assay type: functional, cell-based, Homo sapiens, HUTU-80; conditions: Homo sapiens, HuTu80;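 note: growth inhibition of HuTu80 human cells, determined with a cell viability readout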
Description: SANGER: Inhibition of human HUTU-80 cell growth in a cell viability assay.

KARPAS-299 = assay type: functional, cell-based; conditions: Homo sapiens
Description: SANGER: Inhibition of human KARPAS-299 cell growth in a cell viability assay.

KINGS-1 = assay type: functional, cell-based, Homo sapiens; conditions: Homo sapiens, KINGS-1;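 note: cell viability assay measuring suppression of KINGS-1 cell growth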
Description: SANGER: Inhibition of human KINGS-1 cell growth in a cell viability assay.

KNS-42 = assay type: functional, cell-based, Homo sapiens; conditions: Homo sapiens, KNS-42;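 note: growth inhibition of KNS-42 cells, read out with a cell viability assay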
Description: SANGER: Inhibition of human KNS-42 cell growth in a cell viability assay.

KP-N-YS = assay type: functional, cell-based; conditions: Homo sapiens;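 note: cell viability assay measuring inhibition of cell line growth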
Description: SANGER: Inhibition of human KP-N-YS cell growth in a cell viability assay.

KURAMOCHI = assay type: functional, cell-based; conditions: Homo sapiens;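 note: growth inhibition of KURAMOCHI cells, read out with a cell viability assay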
Description: SANGER: Inhibition of human KURAMOCHI cell growth in a cell viability assay.

KYSE-410 = assay type: functional, cell-based, Homo sapiens; conditions: Homo sapiens, KYSE-410;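 note: growth inhibition of KYSE-410 cells, measured through a cell viability readout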
Description: SANGER: Inhibition of human KYSE-410 cell growth in a cell viability assay.

LB2518-MEL = assay type: functional, cell-based, Homo sapiens; conditions: Homo sapiens, LB2518-MEL;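 note: growth inhibition of human LB2518-MEL cells, measured with a cell viability assay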
Description: SANGER: Inhibition of human LB2518-MEL cell growth in a cell viability assay.

LU-134-A = assay type: functional, cell-based; conditions: Homo sapiens
Description: SANGER: Inhibition of human LU-134-A cell growth in a cell viability assay.

MN-60 = assay type: functional, cell-based; conditions: Homo sapiens;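 note: growth inhibition of the MN-60 cell line, determined with a cell viability assay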
Description: SANGER: Inhibition of human MN-60 cell growth in a cell viability assay.

NCI-H1651 = assay type: functional, cell-based, Homo sapiens; conditions: Homo sapiens, NCI-H1651;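 note: Read-out is a cell viability assay, with IC50 expressing inhibition of NCI-H1651 cell growth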
Description: SANGER: Inhibition of human NCI-H1651 cell growth in a cell viability assay.

NCI-H1770 = assay type: functional, cell-based; conditions: Homo sapiens;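 note: growth inhibition of NCI-H1770 cells determined with a viability readout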
Description: SANGER: Inhibition of human NCI-H1770 cell growth in a cell viability assay.

NCI-H2126 = assay type: functional, cell-based, Homo sapiens; conditions: Homo sapiens, NCI-H2126;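 note: growth inhibition of the cancer cell line, determined with a cell viability readout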
Description: SANGER: Inhibition of human NCI-H2126 cell growth in a cell viability assay.

NCI-H446 = assay type: functional, cell-based; conditions: Homo sapiens;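 note: growth inhibition of NCI-H446 cells determined by a cell viability assay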
Description: SANGER: Inhibition of human NCI-H446 cell growth in a cell viability assay.

NCI-H520 = assay type: functional, cell-based, Homo sapiens; conditions: Homo sapiens, NCI-H520;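 note: growth inhibition of NCI-H520 cells, measured by a cell viability assay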
Description: SANGER: Inhibition of human NCI-H520 cell growth in a cell viability assay.

NCI-H661 = assay type: functional, cell-based, Homo sapiens; conditions: Homo sapiens, NCI-H661;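 note: cell viability assay read-out, IC50 being the concentration that inhibits growth of the cells by half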
Description: SANGER: Inhibition of human NCI-H661 cell growth in a cell viability assay.

NCI-H810 = assay type: functional, cell-based, Homo sapiens; conditions: Homo sapiens, NCI-H810;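 note: IC50 reflects inhibition of cancer cell line growth, read out with a cell viability assay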
Description: SANGER: Inhibition of human NCI-H810 cell growth in a cell viability assay.

NCI-N87 = assay type: functional, cell-based, Homo sapiens; conditions: Homo sapiens, NCI-N87;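 note: growth inhibition of human NCI-N87 cells, read out with a cell viability assay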
Description: SANGER: Inhibition of human NCI-N87 cell growth in a cell viability assay.

SNU1 = assay type: functional, cell-based; conditions: Homo sapiens;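 note: growth inhibition of human NCI-SNU-1 cells, measured with a cell viability assay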
Description: SANGER: Inhibition of human NCI-SNU-1 cell growth in a cell viability assay.

OCUB-M = assay type: functional, cell-based, Homo sapiens; conditions: Homo sapiens, OCUB-M;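 note: growth inhibition of the cancer cell line, read out through a cell viability assay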
Description: SANGER: Inhibition of human OCUB-M cell growth in a cell viability assay.

SK-HEP1 = assay type: functional, cell-based, Homo sapiens, SK-HEP-1; conditions: Homo sapiens, SK-HEP1;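 note: cell viability readout used to quantify reduction in proliferation of human SK-HEP-1 cells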
Description: SANGER: Inhibition of human SK-HEP-1 cell growth in a cell viability assay.

SK-N-FI = assay type: functional, cell-based, Homo sapiens; conditions: Homo sapiens, SK-N-FI;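 note: cell viability assay measuring growth inhibition of human SK-N-FI cells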
Description: SANGER: Inhibition of human SK-N-FI cell growth in a cell viability assay.

SK-NEP-1 = assay type: functional, cell-based; conditions: Homo sapiens;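 note: growth inhibition of human SK-NEP-1 cells, read out by a cell viability assay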
Description: SANGER: Inhibition of human SK-NEP-1 cell growth in a cell viability assay.

SW626 = assay type: functional, cell-based, Homo sapiens; conditions: Homo sapiens, SW626;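 note: growth inhibition of SW626 cells, measured with a cell viability assay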
Description: SANGER: Inhibition of human SW626 cell growth in a cell viability assay.

A253 cell line = assay type: functional, cell-based, Homo sapiens; conditions: Homo sapiens, A253;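 note: growth inhibition of A253 cells, read out with a cell viability assay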
Description: SANGER: Inhibition of human A253 cell growth in a cell viability assay.

CAL-120 = assay type: functional, cell-based, Homo sapiens; conditions: Homo sapiens, CAL-120;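 note: cell growth inhibition, read out as cell viability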
Description: SANGER: Inhibition of human CAL-120 cell growth in a cell viability assay.

CAL-51 = assay type: functional, cell-based, Homo sapiens; conditions: Homo sapiens, CAL-51;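 note: human CAL-51 cell line, growth inhibition read out via a cell viability assay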
Description: SANGER: Inhibition of human CAL-51 cell growth in a cell viability assay.

CAL-85-1 = assay type: functional, cell-based; conditions: Homo sapiens;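 note: growth inhibition of human CAL-85-1 cells, read out with a cell viability assay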
Description: SANGER: Inhibition of human CAL-85-1 cell growth in a cell viability assay.

TE-10 = assay type: functional, cell-based, Homo sapiens; conditions: Homo sapiens, TE-10;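 note: growth inhibition of TE-10 cells, measured by a cell viability assay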
Description: SANGER: Inhibition of human TE-10 cell growth in a cell viability assay.

UACC-893 = assay type: functional, cell-based, Homo sapiens; conditions: Homo sapiens, UACC-893
Description: SANGER: Inhibition of human UACC-893 cell growth in a cell viability assay.

EOL1 = assay type: functional, cell-based; conditions: Homo sapiens;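 note: growth inhibition of EoL-1 cells, read out by a cell viability assay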
Description: SANGER: Inhibition of human EoL-1-cell cell growth in a cell viability assay.

LU-139 = assay type: functional, cell-based; conditions: Homo sapiens
Description: SANGER: Inhibition of human LU-139 cell growth in a cell viability assay.

NCI-H209 = assay type: functional, cell-based; conditions: Homo sapiens;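 note: growth inhibition of human NCI-H209 cells, measured by a cell viability assay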
Description: SANGER: Inhibition of human NCI-H209 cell growth in a cell viability assay.

Measured: IC50

O=c1cc(-c2cccc3c2Sc2ccccc2S3)oc(N2CCOCC2)c1 [KU-55933]
not listed: EOL1 | LU-139 | NCI-H209
> 10 µM: all other assays above

COc1ccc(C2=N[C@@H](c3ccc(Cl)cc3)[C@@H](c3ccc(Cl)cc3)N2C(=O)N2CCNC(=O)C2)c(OC(C)C)c1 [NUTLIN-3]
6.22 µM: GI-ME-N
3.44 µM: MN-60
3.28 µM: SNU1
3.74 µM: SK-HEP1
7.87 µM: NCI-H661
1.27 µM: EOL1
not listed: HuTu80
> 8 µM: all other assays above

O=C1N=C(NCc2cccs2)S/C1=C\c1ccc2ncccc2c1
0.731 µM: SNU1
4.38 µM: MN-60
not listed: HuTu80
> 5 µM: all other assays above
